Assays:
Assay type in all cases: biochemical
SbCOSY = target: T1, SbCOSY (Sorghum bicolor, UniProt C5Z4D6); test: coupled At4CL1 assay, LC-MS of scopoletin; conditions: substrate made in situ by At4CL1 from 6-hydroxyferulic acid, ATP, CoA, Mg2+; 20 mM HEPES; spontaneous background
T1 construct: gene SORBI_3010G043700
T1 sequence (C5Z4D6 1-456): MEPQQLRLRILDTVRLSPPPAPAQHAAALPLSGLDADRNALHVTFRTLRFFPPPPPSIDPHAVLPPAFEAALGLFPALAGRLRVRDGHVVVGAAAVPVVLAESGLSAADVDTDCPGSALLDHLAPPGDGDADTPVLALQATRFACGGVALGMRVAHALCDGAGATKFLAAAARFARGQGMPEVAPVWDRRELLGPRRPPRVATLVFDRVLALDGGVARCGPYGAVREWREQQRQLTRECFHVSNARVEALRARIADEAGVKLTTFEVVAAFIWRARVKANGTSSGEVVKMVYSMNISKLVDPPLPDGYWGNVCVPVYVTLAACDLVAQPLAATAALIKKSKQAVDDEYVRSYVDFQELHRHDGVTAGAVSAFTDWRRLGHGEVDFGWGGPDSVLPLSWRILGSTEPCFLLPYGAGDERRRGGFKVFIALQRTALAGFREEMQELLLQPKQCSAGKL

AtCOSY [1] = target: T2, AtCOSY (Arabidopsis thaliana, UniProt Q8LF28); test: coupled At4CL1 assay, LC-MS of scopoletin; conditions: substrate made in situ by At4CL1 from 6-hydroxyferulic acid, ATP, CoA, Mg2+; 20 mM HEPES; spontaneous background
T2 construct: gene COSY; N-terminal 8xHis tag with TEV site (pHis8-4), tag cleaved; E. coli BL21(DE3); domains 1-181, 182-229, 230-451
T2 sequence (Q8LF28 1-451): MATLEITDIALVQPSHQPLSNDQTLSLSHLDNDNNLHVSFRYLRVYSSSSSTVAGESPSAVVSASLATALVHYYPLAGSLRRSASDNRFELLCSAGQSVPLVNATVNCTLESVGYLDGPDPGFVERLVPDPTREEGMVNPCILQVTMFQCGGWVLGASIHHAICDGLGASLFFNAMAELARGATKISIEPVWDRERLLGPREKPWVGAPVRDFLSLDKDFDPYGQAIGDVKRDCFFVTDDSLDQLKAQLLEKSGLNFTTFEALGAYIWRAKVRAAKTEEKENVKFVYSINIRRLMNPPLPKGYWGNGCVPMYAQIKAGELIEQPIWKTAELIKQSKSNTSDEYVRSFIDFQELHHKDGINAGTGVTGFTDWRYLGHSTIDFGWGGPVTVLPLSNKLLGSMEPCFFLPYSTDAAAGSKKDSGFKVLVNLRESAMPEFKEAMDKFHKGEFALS

GmCOSY = target: T3, GmCOSY (Glycine max, UniProt A0A0R0H5A1); test: coupled At4CL1 assay, LC-MS of scopoletin; conditions: substrate made in situ by At4CL1 from 6-hydroxyferulic acid, ATP, CoA, Mg2+; 20 mM HEPES; spontaneous background
T3 construct: gene LOC100817021
T3 sequence (A0A0R0H5A1 1-452): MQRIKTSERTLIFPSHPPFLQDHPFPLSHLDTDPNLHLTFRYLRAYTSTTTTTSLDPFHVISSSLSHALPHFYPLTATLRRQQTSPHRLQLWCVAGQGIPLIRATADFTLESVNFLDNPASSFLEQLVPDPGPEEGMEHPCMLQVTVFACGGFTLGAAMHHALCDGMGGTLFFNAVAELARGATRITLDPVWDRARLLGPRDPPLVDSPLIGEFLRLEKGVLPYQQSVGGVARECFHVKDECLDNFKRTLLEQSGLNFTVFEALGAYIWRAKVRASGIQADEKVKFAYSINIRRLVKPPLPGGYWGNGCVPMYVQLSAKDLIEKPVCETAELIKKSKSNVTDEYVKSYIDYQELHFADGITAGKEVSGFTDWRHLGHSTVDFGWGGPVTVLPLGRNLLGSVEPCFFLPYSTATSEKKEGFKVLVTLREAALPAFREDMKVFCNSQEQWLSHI

StCOSY = target: T4, StCOSY (Solanum tuberosum, UniProt M0ZYT4); test: coupled At4CL1 assay, LC-MS of scopoletin; conditions: substrate made in situ by At4CL1 from 6-hydroxyferulic acid, ATP, CoA, Mg2+; 20 mM HEPES; spontaneous background
T4 sequence (M0ZYT4 1-444): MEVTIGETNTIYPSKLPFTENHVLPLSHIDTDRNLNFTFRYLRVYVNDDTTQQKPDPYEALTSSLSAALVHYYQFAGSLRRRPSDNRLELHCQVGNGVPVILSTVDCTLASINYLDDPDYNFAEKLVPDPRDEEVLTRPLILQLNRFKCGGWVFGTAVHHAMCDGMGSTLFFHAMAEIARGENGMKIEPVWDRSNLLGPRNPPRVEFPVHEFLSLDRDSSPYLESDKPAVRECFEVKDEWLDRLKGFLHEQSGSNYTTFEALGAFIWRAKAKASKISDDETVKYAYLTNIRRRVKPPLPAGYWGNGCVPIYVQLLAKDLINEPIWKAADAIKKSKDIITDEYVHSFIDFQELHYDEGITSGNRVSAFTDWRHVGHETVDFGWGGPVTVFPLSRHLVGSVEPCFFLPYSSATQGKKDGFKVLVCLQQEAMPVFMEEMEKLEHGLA

AtCOSY [2] = target: T2, AtCOSY; test: coupled At4CL1 assay, LC-MS of umbelliferone; conditions: substrate made in situ by At4CL1 from 2-hydroxy-p-coumaric acid (CAS 614-86-8), ATP, CoA, Mg2+; 20 mM HEPES

With `COc1cc(/C=C/C(=O)SCCNC(=O)CCNC(=O)[C@H](O)C(C)(C)COP(=O)(O)OP(=O)(O)OC[C@H]2O[C@@H](n3cnc4c(N)ncnc43)[C@H](O)[C@@H]2OP(=O)(O)O)c(O)cc1O` [6-hydroxyferuloyl-CoA] the “coupled At4CL1 assay, LC-MS of scopoletin” value (SbCOSY) was “GmCOSY, StCOSY and SbCOSY contain coumarin synthase activity comparable to that of AtCOSY”, the “coupled At4CL1 assay, LC-MS of scopoletin” value (AtCOSY [1]) was “addition of AtCOSY resulted in significant acceleration of coumarin production” and the “coupled At4CL1 assay, LC-MS of scopoletin” value (GmCOSY) was “GmCOSY, StCOSY and SbCOSY contain coumarin synthase activity comparable to that of AtCOSY”. The “coupled At4CL1 assay, LC-MS of scopoletin” value (StCOSY) was “GmCOSY, StCOSY and SbCOSY contain coumarin synthase activity comparable to that of AtCOSY”.
With `CC(C)(COP(=O)(O)OP(=O)(O)OC[C@H]1O[C@@H](n2cnc3c(N)ncnc32)[C@H](O)[C@@H]1OP(=O)(O)O)[C@@H](O)C(=O)NCCC(=O)NCCSC(=O)/C=C/c1ccc(O)cc1O` [2-hydroxy-p-coumaroyl CoA] the “coupled At4CL1 assay, LC-MS of umbelliferone” value (AtCOSY [2]) was “addition of AtCOSY resulted in significant acceleration of coumarin production”.

Source: paper PMC9898226, “Emergence of a proton exchange-based isomerization and lactonization mechanism in the plant coumarin synthase COSY” (Nature Communications, 2023)
